Here are results for one molecule from PMC7724564 (Science Bulletin, 2020).

Each structure is given as a SMILES string.

The target in the assay is human angiotensin-converting enzyme 2 (ACE2) (Homo sapiens, UniProt Q9BYF1). As to the kind of experiment: biolayer interferometry. Format: binding. A general note: BLI is a label-free optical method that tracks binding on a fibre tip over time.
Sequence of human angiotensin-converting enzyme 2 (ACE2) (Q9BYF1 18-740): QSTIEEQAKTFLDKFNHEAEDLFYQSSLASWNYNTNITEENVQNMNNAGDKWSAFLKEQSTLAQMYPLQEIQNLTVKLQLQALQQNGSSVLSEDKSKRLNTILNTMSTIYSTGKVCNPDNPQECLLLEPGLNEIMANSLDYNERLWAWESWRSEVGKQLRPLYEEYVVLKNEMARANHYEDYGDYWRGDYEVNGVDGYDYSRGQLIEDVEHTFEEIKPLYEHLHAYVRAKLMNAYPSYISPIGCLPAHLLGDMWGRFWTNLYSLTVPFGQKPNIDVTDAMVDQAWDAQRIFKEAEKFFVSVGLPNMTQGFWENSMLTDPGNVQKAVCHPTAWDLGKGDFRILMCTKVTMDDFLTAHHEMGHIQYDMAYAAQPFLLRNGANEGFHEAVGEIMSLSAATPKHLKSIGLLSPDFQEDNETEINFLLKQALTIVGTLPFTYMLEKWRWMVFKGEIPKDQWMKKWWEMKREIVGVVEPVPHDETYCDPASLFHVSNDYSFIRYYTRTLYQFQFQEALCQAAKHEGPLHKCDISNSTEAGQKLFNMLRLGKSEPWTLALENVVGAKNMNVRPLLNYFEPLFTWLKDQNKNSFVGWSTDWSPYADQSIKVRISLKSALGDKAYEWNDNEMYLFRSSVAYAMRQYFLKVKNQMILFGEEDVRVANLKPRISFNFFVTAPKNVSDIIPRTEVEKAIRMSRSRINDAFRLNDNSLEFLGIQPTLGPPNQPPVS

For `C=CC1=C(C)c2cc3[nH]c(cc4nc(cc5[nH]c(cc1n2)c(C)c5CCC(=O)O)C(CCC(=O)O)=C4C)c(C)c3C=C` [protoporphyrin IX], binding was put at a Kd of 39 µM. That is a double-digit micromolar value.

The term Kd denotes the free concentration of one partner at which half of the binding sites on the other are occupied at equilibrium, for simple one-to-one binding. A higher Kd goes with weaker binding.
